Test results taken from patent publication US6451796B1, “Fused pyrazine compounds” (Ono Pharmaceutical Co., Ltd., priority 1997, dated 2002).

Tests used:
Type in all cases: cell-based
VCAM-1 expression = assay: Inhibition of VCAM-1 expression in HUVEC (cell ELISA); conditions: Homo sapiens; HUVEC stimulated with TNFα plus IL-4 for 6 hours, ELISA of surface expression
Experimental: (§1) (1) Inhibition of Adhesion Molecules Expression in HUVEC
(§2) Human umbilical vein endothelial cells were cultured using MCDB104 medium (Nissui) containing 5% Fetal bovine serum supplemented antibiotics (100 U/ml penicillin, 100 μg/ml streptomycin (Gibco)), 0.01 mg/ml heparin (Nissui) and 0.005 mg/ml endothelial cells (EC) growth factor (Nissui) in gelatin coated 96-well microtiter plates by resulting in confluent monolayers.
(§3) The compounds were dissolved in dimethyl sulfoxide and prepared final 0.2% concentration in the medium and then added 50 μl into the well. Cytokine stimulation of EC was performed by adding 50 μl of 10 ng/ml TNFα (Genzyme) (for E-selectin. and ICAM-1 expression) or 50 μl of 10 ng/ml TNFα plus 1 ng/ml IL-4 (Genzyme)(for VCAM- expression).
(§4) After stimulation for 6 hours, the wells were washed with PBS(−) once and EC monolayers were fixed by incubating with methanol containing 0.3% hydrogen peroxide for 10 minutes at room temperature. After washing with PBS(−) three times, an ELISA was used to measure the expression of adhesion molecules on EC surface. The ELISA was performed at room temperature with three times washes with PBS(−) between each step. EC were incubated for 30 minutes in turn with 100 μl primary antibody which were anti-ICAM-1 antibody (BBA4), anti-E-selectin antibody (BBA2) or anti-VCAM-1 antibody (BBA6) (mouse IgG1, 1.25 μl/ml; R&D), with 100 μl of secondary antibody which was goat anti-mouse IgG conjugated peroxidase (dilution (1/400); Nordic Immunological laboratories). The enzyme substrate 1 mg/ml o-phenylenediamine/2HCl and 0.1% hydrogen peroxide of 100 μl was added and incubated for 4 minutes at room temperature.
(§5) Reaction was stopped with 50 μl of 8N sulfuric acid and optical density (OD) of each well read at 490 nm in immunoreder. Inhibitory percentage was calculated as follows and IC50 value was estimated by percentage for control.
(§6) Inhibitory percentage (%)=[(C−S)/(C−B)]×100
(§7) C: OD of the sample stimulated by cytokines
(§8) S: OD of the sample stimulated by cytokines in the presence of test compound
(§9) B: OD of the nonstimulated sample

ICAM-1 expression = assay: Inhibition of ICAM-1 expression in HUVEC (cell ELISA); conditions: Homo sapiens; HUVEC stimulated with TNFα for 6 hours, ELISA of surface expression
Experimental: as §1, §2, §3, §4, §5, §6, §7, §8, §9

E-selectin expression = assay: Inhibition of E-selectin expression in HUVEC (cell ELISA); conditions: Homo sapiens; HUVEC stimulated with TNFα for 6 hours, ELISA of surface expression
Experimental: as §1, §2, §3, §4, §5, §6, §7, §8, §9

[1] = Cytotoxicity test by MTT assay; conditions: human; EC treated under conditions identical to adhesion molecule expression measurement; MTT 3 hours
Experimental: Furthermore, MTT [3-(4,5-dimethyl-2-thiazolyl)-2,5-diphenyl-2H-tetrazolium bromide] assay was enforced and the number of living cells was counted in order to estimate the effect of compound not to depend cytotoxicity on the above evaluation system.
(2) Cytotoxicity Test by MTT Assay
EC Were treated under conditions identical to those employed for measurement of adhesion molecules expression. After incubation, the wells were washed with PBS(−) once, added 100 μl of MTT solution (1 mg/ml) and incubated for 3 hours. After incubation supernatants were discarded and 100 μl of methanol added. After stirring, OD of each well read at 570 nm/690 nm in immunoreader. Inhibitory percentage was calculated as follows and IC50 value was estimated by percentage for control.
Inhibitory percentage (%)=[(C−S)/C)]×100
as §7, §8

CC(C)Sc1nc2cccnc2n2c(C(F)(F)F)nnc12 [Example 3(16), 4-Isopropylthio-(5-trifluoromethyl-1,2,4-triazolo)[3,4-c]1,4,5-triazanaphthalene]
IC50 (VCAM-1 expression): 0.032 µM
IC50 (ICAM-1 expression): 0.073 µM
IC50 (E-selectin expression): 0.103 µM
IC50 [1]: > 100000 nM

FC(F)(F)c1nnc2c(Sc3ccccc3)nc3ccccc3n12 [Compound (12), 4-Phenylthio(5-trifluoromethyl-1,2,4-triazolo)-[4,3-a]quinoxaline]
IC50 (VCAM-1 expression): 0.95 µM
IC50 (ICAM-1 expression): 0.95 µM
IC50 (E-selectin expression): 1.04 µM
IC50 [1]: > 50000 nM

OCCCCCSc1nc2ccc(Cl)cc2n2c(C(F)(F)F)nnc12 [Example 3(73), 8-Chloro-4-(5-hydroxypentyl)thio-(5-trifluoromethyl-1,2,4-triazolo)[4,3-a]quinoxaline]
IC50 (VCAM-1 expression): 0.2 µM
IC50 (ICAM-1 expression): 0.4 µM
IC50 (E-selectin expression): 0.6 µM
IC50 [1]: > 25000 nM
